Consider 24 compounds from US9957263B2, “Bromodomain inhibitors” (AbbVie Inc., priority 2013, dated 2018).

For test [1], the target named is BRD4 (BDI_K57-E168) (Homo sapiens (Human), UniProt O60885). Put plainly: TR-FRET bromodomain binding assay, BRD4 first bromodomain. As to conditions: His-tagged BD1, Alexa647-labeled probe 100 nM. The essentials:
(§1)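 Read-out: TR-FRET ratio after 1 h at room temperature, normalized to controls and fitted for IC50, then converted to Ki. Reaction held 8 nM His-tagged domain, 1 nM Eu-anti-His antibody, Alexa647 probe (BDI 100 nM; BDII 30 nM) and test compound in 2% DMSO.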

Test [2] addresses BRD4 (BDII_E352-M457) (Homo sapiens (Human), UniProt O60885). Put plainly: TR-FRET bromodomain binding assay, BRD4 second bromodomain. As to conditions: His-tagged BD2, Alexa647-labeled probe 30 nM. The essentials:
as §1
In general terms: TR-FRET usually uses a lanthanide donor and a delayed reading to cut background.

In the case of `Cn1cc(-c2cc(S(C)(=O)=O)ccc2NC2CCN(S(=O)(=O)c3ccccc3)CC2)c2cc[nH]c2c1=O` [Example 84, 6-methyl-4-[5-(methylsulfonyl)-2-{[1-(phenylsulfonyl)piperidin-4-yl]amino}phenyl]-1,6-dihydro-7H-pyrrolo[2,3-c]pyridin-7-one], the inhibition constant Ki (usually a measure of affinity in units of concentration, obtained from inhibition or displacement) in test [1] was 0.0047 µM; in test [2], 0.0089 µM.
For the compound `CN(C)CC(=O)N1CCC(Nc2ccc(S(C)(=O)=O)cc2-c2cn(C)c(=O)c3[nH]ccc23)CC1` [Example 85, 4-[2-({1-[(dimethylamino)acetyl]piperidin-4-yl}amino)-5-(methylsulfonyl)phenyl]-6-methyl-1,6-dihydro-7H-pyrrolo[2,3-c]pyridin-7-one], the Ki in test [1] was found to be 0.008 µM; in test [2], 0.06 µM.
For the compound `CSCCCN1CCC(Nc2ccc(S(C)(=O)=O)cc2-c2cn(C)c(=O)c3[nH]ccc23)CC1` [Example 86, 6-methyl-4-[2-({1-[3-(methylsulfanyl)propyl]piperidin-4-yl}amino)-5-(methylsulfonyl)phenyl]-1,6-dihydro-7H-pyrrolo[2,3-c]pyridin-7-one], the Ki is 0.024 µM in test [1] and 0.075 µM in test [2].
Taken in the same sequence, the figures for `CC(=O)Nc1ccc(CN2CCC(Nc3ccc(S(C)(=O)=O)cc3-c3cn(C)c(=O)c4[nH]ccc34)CC2)cc1` [Example 87, N-{4-[(4-{[2-(6-methyl-7-oxo-6,7-dihydro-1H-pyrrolo[2,3-c]pyridin-4-yl)-4-(methylsulfonyl)phenyl]amino}piperidin-1-yl)methyl]phenyl}acetamide] were 0.021 µM and 0.034 µM.
With `COc1cc(CN2CCC(Nc3ccc(S(C)(=O)=O)cc3-c3cn(C)c(=O)c4[nH]ccc34)CC2)cc(OC)c1OC` [Example 88, 6-methyl-4-[5-(methylsulfonyl)-2-{[1-(3,4,5-trimethoxybenzyl)piperidin-4-yl]amino}phenyl]-1,6-dihydro-7H-pyrrolo[2,3-c]pyridin-7-one], the inhibition constant Ki was determined as 0.0049 µM in test [1] and 0.023 µM in test [2].
Turning to `Cn1cc(-c2cc(S(C)(=O)=O)ccc2NC2CCN(Cc3cccs3)CC2)c2cc[nH]c2c1=O` [Example 89, 6-methyl-4-[5-(methylsulfonyl)-2-{[1-(thiophen-2-ylmethyl)piperidin-4-yl]amino}phenyl]-1,6-dihydro-7H-pyrrolo[2,3-c]pyridin-7-one], the figures for the Ki in test [1] and in test [2] were 0.022 µM and 0.044 µM, respectively.
Taken in the same sequence, the figures for `CN(C)CCCOc1ccc(CN2CCC(Nc3ccc(S(C)(=O)=O)cc3-c3cn(C)c(=O)c4[nH]ccc34)CC2)cc1` [Example 90, 4-{2-[(1-{4-[3-(dimethylamino)propoxy]benzyl}piperidin-4-yl)amino]-5-(methylsulfonyl)phenyl}-6-methyl-1,6-dihydro-7H-pyrrolo[2,3-c]pyridin-7-one] were 0.014 µM and 0.025 µM.
Turning to `CSCC(=O)N1CCC(Nc2ccc(S(C)(=O)=O)cc2-c2cn(C)c(=O)c3[nH]ccc23)CC1` [Example 91, 6-methyl-4-[2-({1-[(methylsulfanyl)acetyl]piperidin-4-yl}amino)-5-(methylsulfonyl)phenyl]-1,6-dihydro-7H-pyrrolo[2,3-c]pyridin-7-one], the Ki in test [1] came to 0.005 µM; in test [2], 0.0075 µM.
With `COc1ccc(CCC(=O)N2CCC(Nc3ccc(S(C)(=O)=O)cc3-c3cn(C)c(=O)c4[nH]ccc34)CC2)c(OC)c1OC` [Example 92, 6-methyl-4-[5-(methylsulfonyl)-2-({1-[3-(2,3,4-trimethoxyphenyl)propanoyl]piperidin-4-yl}amino)phenyl]-1,6-dihydro-7H-pyrrolo[2,3-c]pyridin-7-one], the Ki in test [1] is 0.015 µM; in test [2], 0.033 µM.
Take `Cn1cc(-c2cc(S(C)(=O)=O)ccc2NC2CCN(C(=O)C3(C(N)=O)CC3)CC2)c2cc[nH]c2c1=O` [Example 93, 1-[(4-{[2-(6-methyl-7-oxo-6,7-dihydro-1H-pyrrolo[2,3-c]pyridin-4-yl)-4-(methylsulfonyl)phenyl]amino}piperidin-1-yl)carbonyl]cyclopropanecarboxamide]: the Ki stood at 0.019 µM in test [1] and 0.024 µM in test [2].
On to `COC1CCC(C(=O)N2CCC(Nc3ccc(S(C)(=O)=O)cc3-c3cn(C)c(=O)c4[nH]ccc34)CC2)CC1` (stereo not drawn) [Example 94, 4-[2-({1-[(4-methoxycyclohexyl)carbonyl]piperidin-4-yl}amino)-5-(methylsulfonyl)phenyl]-6-methyl-1,6-dihydro-7H-pyrrolo[2,3-c]pyridin-7-one], for which the figures for the Ki in test [1] and in test [2] were 0.03 µM and 0.02 µM, respectively.
In the same order, the values of `COCC(=O)N1CCC(Nc2ccc(S(C)(=O)=O)cc2-c2cn(C)c(=O)c3[nH]ccc23)CC1` [Example 95, 4-[2-{[1-(methoxyacetyl)piperidin-4-yl]amino}-5-(methylsulfonyl)phenyl]-6-methyl-1,6-dihydro-7H-pyrrolo[2,3-c]pyridin-7-one] are 0.022 µM and 0.016 µM.
In the same order, the values of `CN1CCN(CC(=O)N2CCC(Nc3ccc(S(C)(=O)=O)cc3-c3cn(C)c(=O)c4[nH]ccc34)CC2)CC1` [Example 96, 6-methyl-4-[2-({1-[(4-methylpiperazin-1-yl)acetyl]piperidin-4-yl}amino)-5-(methylsulfonyl)phenyl]-1,6-dihydro-7H-pyrrolo[2,3-c]pyridin-7-one] are 0.017 µM and 0.021 µM.
Take `Cn1cc(-c2cc(S(C)(=O)=O)ccc2NC2CCN(C(=O)CN3CCCC3)CC2)c2cc[nH]c2c1=O` [Example 97, 6-methyl-4-[5-(methylsulfonyl)-2-{[1-(pyrrolidin-1-ylacetyl)piperidin-4-yl]amino}phenyl]-1,6-dihydro-7H-pyrrolo[2,3-c]pyridin-7-one]: the inhibition constant Ki in test [1] came to 0.01 µM; in test [2], 0.028 µM.
Taken in the same sequence, the figures for `COCCOCC(=O)N1CCC(Nc2ccc(S(C)(=O)=O)cc2-c2cn(C)c(=O)c3[nH]ccc23)CC1` [Example 98, 4-[2-({1-[(2-methoxyethoxy)acetyl]piperidin-4-yl}amino)-5-(methylsulfonyl)phenyl]-6-methyl-1,6-dihydro-7H-pyrrolo[2,3-c]pyridin-7-one] were 0.014 µM and 0.02 µM.
With `Cn1cc(-c2cc(S(C)(=O)=O)ccc2NC2CCN(C(=O)CCN3CCOCC3)CC2)c2cc[nH]c2c1=O` [Example 99, 6-methyl-4-[5-(methylsulfonyl)-2-({1-[3-(morpholin-4-yl)propanoyl]piperidin-4-yl}amino)phenyl]-1,6-dihydro-7H-pyrrolo[2,3-c]pyridin-7-one], the Ki was 0.012 µM in test [1] and 0.028 µM in test [2].
In the case of `Cn1cc(-c2cc(S(C)(=O)=O)ccc2NC2CCN(S(=O)(=O)Cc3ccccc3)CC2)c2cc[nH]c2c1=O` [Example 101, 4-[2-{[1-(benzylsulfonyl)piperidin-4-yl]amino}-5-(methylsulfonyl)phenyl]-6-methyl-1,6-dihydro-7H-pyrrolo[2,3-c]pyridin-7-one], the results for the Ki in test [1] and in test [2] were 0.006 µM and 0.0058 µM, respectively.
In the case of `CC(=O)Nc1ccc(S(=O)(=O)N2CCC(Nc3ccc(S(C)(=O)=O)cc3-c3cn(C)c(=O)c4[nH]ccc34)CC2)cc1` [Example 103, N-{4-[(4-{[2-(6-methyl-7-oxo-6,7-dihydro-1H-pyrrolo[2,3-c]pyridin-4-yl)-4-(methylsulfonyl)phenyl]amino}piperidin-1-yl)sulfonyl]phenyl}acetamide], the Ki in test [1] amounted to 0.0041 µM; in test [2], 0.0049 µM.
In the case of `COc1ccc(S(=O)(=O)N2CCC(Nc3ccc(S(C)(=O)=O)cc3-c3cn(C)c(=O)c4[nH]ccc34)CC2)cc1` [Example 104, 4-[2-({1-[(4-methoxyphenyl)sulfonyl]piperidin-4-yl}amino)-5-(methylsulfonyl)phenyl]-6-methyl-1,6-dihydro-7H-pyrrolo[2,3-c]pyridin-7-one], the results for the Ki in test [1] and in test [2] were 0.0046 µM and 0.004 µM, respectively.
Taken in the same sequence, the figures for `Cn1cc(-c2cc(S(C)(=O)=O)ccc2NC2CCN(S(=O)(=O)c3cccc(C#N)c3)CC2)c2cc[nH]c2c1=O` [Example 105, 3-[(4-{[2-(6-methyl-7-oxo-6,7-dihydro-1H-pyrrolo[2,3-c]pyridin-4-yl)-4-(methylsulfonyl)phenyl]amino}piperidin-1-yl)sulfonyl]benzonitrile] were 0.0072 µM and 0.017 µM.
In the same order, the values of `Cn1cc(-c2cc(S(C)(=O)=O)ccc2NC2CCN(S(=O)(=O)c3cccs3)CC2)c2cc[nH]c2c1=O` [Example 106, 6-methyl-4-[5-(methylsulfonyl)-2-{[1-(thiophen-2-ylsulfonyl)piperidin-4-yl]amino}phenyl]-1,6-dihydro-7H-pyrrolo[2,3-c]pyridin-7-one] are 0.0079 µM and 0.0065 µM.
In the case of `Cn1cc(-c2cc(S(C)(=O)=O)ccc2N[C@H]2CC[C@H](NCc3cccs3)CC2)c2cc[nH]c2c1=O` [Example 107, 6-methyl-4-[5-(methylsulfonyl)-2-({trans-4-[(thiophen-2-ylmethyl)amino]cyclohexyl}amino)phenyl]-1,6-dihydro-7H-pyrrolo[2,3-c]pyridin-7-one], the Ki is 0.003 µM in test [1] and 0.0089 µM in test [2].
In the same order, the values of `CC(=O)Nc1ccc(CN[C@H]2CC[C@H](Nc3ccc(S(C)(=O)=O)cc3-c3cn(C)c(=O)c4[nH]ccc34)CC2)cc1` [Example 108, N-(4-{[(trans-4-{[2-(6-methyl-7-oxo-6,7-dihydro-1H-pyrrolo[2,3-c]pyridin-4-yl)-4-(methylsulfonyl)phenyl]amino}cyclohexyl)amino]methyl}phenyl)acetamide] are 0.0034 µM and 0.0056 µM.
For the compound `Cn1cc(-c2cc(S(C)(=O)=O)ccc2N[C@H]2CC[C@H](NCc3ccc(F)cc3F)CC2)c2cc[nH]c2c1=O` [Example 109, 4-[2-({trans-4-[(2,4-difluorobenzyl)amino]cyclohexyl}amino)-5-(methylsulfonyl)phenyl]-6-methyl-1,6-dihydro-7H-pyrrolo[2,3-c]pyridin-7-one], the Ki in test [1] was 0.0016 µM; in test [2], 0.0083 µM.
